Results taken from patent publication EP4470536A1, “COMPOUND FOR USE IN TREATING FIBRODYSPLASIA OSSIFICANS PROGRESSIVA (FOP)” (Queen's University At Kingston, priority 2023, dated 2024).

Key:
[1] = Mapping a therapeutic window (ED50 versus MTD); format: in vivo; details: QD, own data compiled with mined literature data
From the text: For both palovarotene and compound 1 efficacy and toxicity were correlated to the pharmacokinetic parameters AUC (area under the curve), Cmax (maximum concentration detected following compound administration), and duration above EC50/IC50.This illustrated that efficacy was best predicted by duration above the EC50/IC50 (effective concentration for 50% response (in the case of palovarotene), or for 50% inhibition (in the case of compound 1)), whereas toxicity was best predicted by Cmax. […] For palovarotene, efficacy data from Example 7 and toxicity data from Example 8 above were compiled with mined data from the following publications: • Lindborg et al (2018). "Cartilage-derived retinoic acid-sensitive protein (CD-RAP): A stage-specific biomarker of heterotopic endochondral ossification (HEO) in fibrodysplasia ossificans progressiva (FOP)." Bone 109: 153-157. • Chakkalakal, S. A., et al. (2016). "Palovarotene Inhibits Heterotopic Ossification and Maintains Limb Mobility and Growth in Mice With the Human ACVR1(R206H) Fibrodysplasia Ossificans Progressiva (FOP) Mutation." J Bone Miner Res 31(9): 1666-1675. • Inubushi, T., et al. (2018). "Palovarotene Inhibits Osteochondroma Formation in a Mouse Model of Multiple Hereditary Exostoses." J Bone Miner Res 33(4): 658-666. • Lees-Shepard, J. B., et al. (2018). […] "Potent inhibition of heterotopic ossification by nuclear retinoic acid receptor-gamma agonists." Nat Med 17(4): 454-460.

[2] = tested on: ectopic bone formation; experiment: Surgical mouse model of heterotopic ossification (rhBMP2-soaked collagen disk), micro-CT; format: in vivo, CD-1 mouse; details: Day 14
Description: Heterotopic ossification (HO) driven by Bone Morphogenetic Protein (BMP) signaling has been used as a surrogate model for testing the effectiveness of drugs for treating Fibrodysplasia Ossificans Progressiva (FOP) (see, for example, Shimono K., et al. (2011). Nat Med 17, 454-460.). Collagen disks of 1mm in diameter were punched from a thin collagen foam matrix (Avitene™ Ultrafoam™ Collagen Hemostat product #1050050 lot #WBDP0038, from BD, Franklin Lakes, NJ, USA). Disks were impregnated with 1µg total of recombinant human BMP-2 (GenScript, Piscataway, NJ, USA, catalog #Z02913, lot #P50031712) on the day of surgery (5µl of 200ng/µL BMP-2, reconstituted in 20mM acetic acid solution). The rhBMP2-soaked collagen disk was surgically implanted into a small pocket made in the left gastrocnemius muscle of a 6-8 week-old male CD-1 mouse. Beginning on the day following surgery, mice were administered varying doses of compound 1 by oral gavage once daily (QD) or twice daily (every 12h; BID) for 13 days. Doses administered were: vehicle (Corn oil, QD (5M) and BID (3M) dosing or 3% DMSO in Corn oil (2M)), compound 1 18 mg/kg BID, 18 mg/kg QD, 6 mg/kg BID, 4.5 mg/kg BID, and 2 mg/kg BID (6M per group). Palovarotene high and low doses were used as comparators (1.76 mg/kg (4M) and 0.88 mg/kg QD (6M)). The palovarotene high and low doses were selected based on a study for palovarotene (Inubushi, T., et al. (2018). "Palovarotene Inhibits Osteochondroma Formation in a Mouse Model of Multiple Hereditary Exostoses." J Bone Miner Res 33(4): 658-666.), using oral treatment of mice. The inventors also verified the dose selection based on pharmacokinetic (PK) data generated in-house for palovarotene IP (intraperitoneal) and PO (oral) treatment by using the doses for IP treatment from Lees-Shepard, J. B., et al. (2018).
At the study endpoint (Day 14: 16-30 hours after final compound treatment) left hindlimbs were removed and submitted to micro-CT (micro-computed tomography) imaging. Using this preclinical surgical model, the amount of resulting ectopic bone formation after 14 days was visualized for each of the treatment groups (Figure 6). The highly enhancing regions seen within the gastrocnemius muscle corresponded to the amount of ectopic bone formation generated at the site of collagen disk implantation, following 14 days of vehicle or drug treatment.
The hindlimbs obtained in Example 6 above were submitted to micro-CT imaging. CT images were acquired using a VECTor^4CT pre-clinical scanner (MILabs B.V., Utrecht, Netherlands) equipped with a cone beam X-ray CT system. Scans were carried out with an acceleration voltage of 50 kVp and an X-ray tube current of 430 µA in accurate focus mode to obtain 3600 projections over a 360° scan. With a 40 ms exposure time per step, the total scan procedure took about 5 minutes with an estimated radiation dose of 3077 mGy. CT images were consequently processed using MILabs reconstruction software implementing a voxel size of 20 µm and a Hann projection filter of 25 µm to generate 3-dimensional CT images. For quantification, CT images were converted to DICOM® files using PMOD 3.9 software (PMOD Technologies Ltd., Zurich, Switzerland) for rendering using RadiAnt DICOM Viewer 4.2 software (Medixant, Poznań, Poland). The region-of-interest for all hindlimbs, reconstructed from DICOM files, was defined by outlining sites of ectopic ossification. Analysis of total ectopic bone volume was conducted via automated processes using the AnalyzePro software with the Bone Microarchitecture Analysis (BMA) add-on (AnalyzeDirect, Overland Park, Kansas). This software generates bone volume measurements from the defined area, as described by Bouxsein et al (2010). Journal of Bone and Mineral Research, 25(7), 1468-1486. Using this preclinical surgical model, the ability of compound 1 to inhibit HO (percentage from vehicle), as compared to palovarotene, was assessed and is shown in Figure 7 and in Table 1 below.

CC1(C)CCC(C)(C)c2cc(Cn3cccn3)c(/C=C/c3ccc(C(=O)O)cc3)cc21 [Palovarotene, palovarotene, reference compound]
ED50 ([1]; Mus musculus): 0.3 mg/kg | MTD ([1]; mouse, in vivo): 0.285 mg/kg | Mean bone volume (mm^3) ([2]; 0.88mg/kg): 1.985 mm^3 | percent change in HO volume from vehicle mean (%) ([2]; 0.88mg/kg): +2.5% | Mean bone volume (mm^3) ([2]; 1.76mg/kg QD): 0.615 mm^3 | percent change in HO volume from vehicle mean (%) ([2]; 1.76mg/kg QD): -68.2%
